Usually Ki stands for the dissociation constant of the complex between target and ligand, obtained from inhibition or displacement. Read a high Ki as lower affinity.

Our source for the Ki values is patent publication US8461107B2 (Merck Sharp & Dohme Corp., priority 2008, dated 2013).

This test concerns the target T1, HCV genotype 1b (BK) NS3 modified with a R155K mutation (Hepatitis C virus genotype 1b, UniProt P26663, R1181K).
T1 construct: HCV genotype 1b (BK) NS3 modified with a R155K mutation
The test can be described thus: HCV NS3 protease time-resolved fluorescence (TRF) assay, NS3 protease 1b R155K Ki activity. To be noted: HCV genotype 1b (BK) NS3 with R155K mutation; TRF peptide substrate 100 nM; Ki derived from IC50. It counts as biochemical. The protocol:
The HCV NS3 protease inhibitory activity of the present compounds may be tested using assays known in the art. One such assay is HCV NS3 protease time-resolved fluorescence (TRF) assay as described below and in International Patent Application Publication WO 2006/102087. Other examples of such assays are described in e.g., International Patent Application Publication WO 2005/046712.
A NS3 protease assay can be performed, for example, in a final volume of 100 μl assay buffer containing 50 mM HEPES, pH 7.5, 150 mM NaCl, 15% glycerol, 0.15% TRITON X-100, 10 mM DTT, and 0.1% PEG 8000. NS3 and NS4A protease is pre-incubated with various concentrations of inhibitors in DMSO for 30 minutes. The reaction is initiated by adding the TRF peptide substrate (final concentration 100 nM). NS3 mediated hydrolysis of the substrate is quenched after 1 hour at room temperature with 100 μl of 500 mM MES, pH 5.5. Product fluorescence is detected using either a VICTOR V2 or FUSION fluorophotometer (Perkin Elmer Life and Analytical Sciences) with excitation at 340 nm and emission at 615 nm with a 400 μs delay. Testing concentrations of different enzyme forms are selected to result in a signal to background ratio (S/B) of 10-30. IC50 values are derived using a standard four-parameter fit to the data. Ki values are derived from IC50 values using the following formula, IC50=Ki(1+[S]/KM), Eqn (1), where [S] is the concentration of substrate peptide in the reaction and KM is the Michaelis constant. See P. Gallinari et al., 38 BIOCHEM. 5620-32 (1999); P. Gallinari et al., 72 J. VIROL. 6758-69 (1998); M. Taliani et al., 240 ANAL. BIOCHEM. 60-67 (1996).
The HCV NS3 protease inhibitory activity was measured using the protease time-resolved fluorescence (TRF) assay as described below and in International Patent Application Publication WO 2006/102087. The assay was performed with HCV genotype 1b (BK) NS3 modified with a R155K mutation.
The assay was performed in a final volume of 100 μl in assay buffer containing 50 mM HEPES, pH 7.5, 150 mM NaCl, 15% glycerol, 0.15% TRITON X-100, 10 mM DTT, and 0.1% PEG 8000. NS3 and NS4A protease is pre-incubated with various concentrations of inhibitors in DMSO for 30 minutes. The reaction is initiated by adding the TRF peptide substrate (final concentration 100 nM). NS3 mediated hydrolysis of the substrate is quenched after 1 hour at room temperature with 100 μl of 500 mM MES, pH 5.5. Product fluorescence is detected using either a VICTOR V2 or FUSION fluorophotometer (Perkin Elmer Life and Analytical Sciences) with excitation at 340 nm and emission at 615 nm with a 400 μs delay. Testing concentrations of the enzyme containing the R155K mutation were selected to result in a signal to background ratio (S/B) of 10-30. IC50 values are derived using a standard four-parameter fit to the data. Ki values are derived from IC50 values using the following formula, IC50=Ki(1+[S]/KM), Eqn (1), where [S] is the concentration of substrate peptide in the reaction and KM is the Michaelis constant. See P. Gallinari et al., 38 BIOCHEM. 5620-32 (1999); P. Gallinari et al., 72 J. VIROL. 6758-69 (1998); M. Taliani et al., 240 ANAL. BIOCHEM. 60-67 (1996).
Take `C=C[C@@H]1C[C@]1(NC(=O)[C@@H]1C[C@@H]2CN1C(=O)[C@H](C1CCCC1)NC(=O)O[C@@H]1CCC[C@H]1CC/C=C/Cc1c(nc3ccccn3c1=O)O2)C(=O)NS(=O)(=O)C1CC1` [(3aR,7S,10S,12R,22E,25aS)-7-cyclopentyl-N-((1R,2S)-1-{[(cyclopropylsulfonyl)amino]carbonyl}-2-vinylcyclopropyl)-5,8,20-trioxo-1,2,3,3a,5,6,7,8,11,12,21,24,25,25a-tetradecahydro-10H,20H-9,12-methanocyclopenta[r]pyrido[1′,2′:1,2]pyrimido[4,5-k][1,10,3,6]dioxadiazacyclononadecine-10-carboxamide]: the Ki was < 0.1 nM.

In the case of `C=C[C@@H]1C[C@]1(NC(=O)[C@@H]1C[C@@H]2CN1C(=O)[C@H](C1CCCC1)NC(=O)O[C@@H]1CCC[C@H]1CC/C=C/Cn1c(nc3cc(S(C)(=O)=O)ccc3c1=O)O2)C(=O)NS(=O)(=O)C1CC1` [(3aR,7S,10S,12R,22E,25aS)-7-cyclopentyl-N-((1R,2S)-1-{[(cyclopropylsulfonyl)amino]carbonyl}-2-vinylcyclopropyl)-16-(methylsulfonyl)-5,8,19-trioxo-1,2,3,3a,5,6,7,8,11,12,21,24,25,25a-tetradecahydro-10H,19H-9,12-methanocyclopenta[18,19][1,10,3,6,12]dioxatriazacyclononadecino[11,12-b]quinazoline-10-carboxamide], the Ki is < 0.1 nM. The value for `C=C[C@@H]1C[C@]1(NC(=O)[C@@H]1C[C@@H]2CN1C(=O)[C@H](C1CCCC1)NC(=O)O[C@@H]1CCC[C@H]1CC/C=C/Cn1c(nc3cc(OC)ccc3c1=O)O2)C(=O)NS(=O)(=O)C1CC1` [(3aR,7S,10S,12R,22E,25aS)-7-cyclopentyl-N-((1R,2S)-1-{[(cyclopropylsulfonyl)amino]carbonyl}-2-vinylcyclopropyl)-16-methoxy-5,8,19-trioxo-1,2,3,3a,5,6,7,8,11,12,21,24,25,25a-tetradecahydro-10H,19H-9,12-methanocyclopenta[18,19][1,10,3,6,12]dioxatriazacyclononadecino[11,12-b]quinazoline-10-carboxamide] was < 0.1 nM. Under `C=C[C@@H]1C[C@]1(NC(=O)[C@@H]1C[C@@H]2CN1C(=O)[C@H](C1CCCC1)NC(=O)O[C@@H]1CCC[C@H]1CC/C=C/Cn1c(nc3cccc(OC)c3c1=O)O2)C(=O)NS(=O)(=O)C1CC1` [(3aR,7S,10S,12R,22E,25aS)-7-cyclopentyl-N-((1R,2S)-1-{[(cyclopropylsulfonyl)amino]carbonyl}-2-vinylcyclopropyl)-18-methoxy-5,8,19-trioxo-1,2,3,3a,5,6,7,8,11,12,21,24,25,25a-tetradecahydro-10H,19H-9,12-methanocyclopenta[18,19][1,10,3,6,12]dioxatriazacyclononadecino[11,12-b]quinazoline-10-carboxamide] stands < 0.1 nM; under `CC[C@@H]1C[C@]1(NC(=O)[C@@H]1C[C@@H]2CN1C(=O)[C@H](C1CCCC1)NC(=O)O[C@@H]1CCC[C@H]1CC/C=C/Cn1c(nc3cc(Br)ccc3c1=O)O2)C(=O)NS(=O)(=O)C1CC1` [(3aR,7S,10S,12R,22E,25aS)-16-bromo-7-cyclopentyl-N-((1R,2R)-1-{[(cyclopropylsulfonyl)amino]carbonyl}-2-ethylcyclopropyl)-5,8,19-trioxo-1,2,3,3a,5,6,7,8,11,12,21,24,25,25a-tetradecahydro-10H,19H-9,12-methanocyclopenta[18,19][1,10,3,6,12]dioxatriazacyclononadecino[11,12-b]quinazoline-10-carboxamide], 0.1 to 0.5 nM.

In turn, `CC[C@@H]1C[C@]1(NC(=O)[C@@H]1C[C@@H]2CN1C(=O)[C@H](C1CCCC1)NC(=O)O[C@@H]1CCC[C@H]1CC/C=C/Cn1c(nc3cc(Cl)ccc3c1=O)O2)C(=O)NS(=O)(=O)C1CC1` [(3aR,7S,10S,12R,22E,25aS)-16-chloro-7-cyclopentyl-N-((1R,2R)-1-{[(cyclopropylsulfonyl)amino]carbonyl}-2-ethylcyclopropyl)-5,8,19-trioxo-1,2,3,3a,5,6,7,8,11,12,21,24,25,25a-tetradecahydro-10H,19H-9,12-methanocyclopenta[18,19][1,10,3,6,12]dioxatriazacyclononadecino[11,12-b]quinazoline-10-carboxamide] showed a Ki of 0.1 to 0.5 nM. Under `C=C[C@@H]1C[C@]1(NC(=O)[C@@H]1C[C@@H]2CN1C(=O)[C@H](C1CCCC1)NC(=O)O[C@@H]1CCC[C@H]1CC/C=C/Cn1c(nc3cc(Cl)ccc3c1=O)O2)C(=O)NS(=O)(=O)C1CC1` [(3aR,7S,10S,12R,22E,25aS)-16-chloro-7-cyclopentyl-N-((1R,2S)-1-{[(cyclopropylsulfonyl)amino]carbonyl}-2-vinylcyclopropyl)-5,8,19-trioxo-1,2,3,3a,5,6,7,8,11,12,21,24,25,25a-tetradecahydro-10H,19H-9,12-methanocyclopenta[18,19][1,10,3,6,12]dioxatriazacyclononadecino[11,12-b]quinazoline-10-carboxamide] stands < 0.1 nM; under `CC[C@@H]1C[C@]1(NC(=O)[C@@H]1C[C@@H]2CN1C(=O)[C@H](C1CCCC1)NC(=O)O[C@@H]1CCC[C@H]1CC/C=C/Cn1c(nc3cc(C#N)ccc3c1=O)O2)C(=O)NS(=O)(=O)C1CC1` [(3aR,7S,10S,12R,22E,25aS)-16-cyano-7-cyclopentyl-N-((1R,2R)-1-{[(cyclopropylsulfonyl)amino]carbonyl}-2-ethylcyclopropyl)-5,8,19-trioxo-1,2,3,3a,5,6,7,8,11,12,21,24,25,25a-tetradecahydro-10H,19H-9,12-methanocyclopenta[18,19][1,10,3,6,12]dioxatriazacyclononadecino[11,12-b]quinazoline-10-carboxamide], 0.1 to 0.5 nM; under `C=C[C@@H]1C[C@]1(NC(=O)[C@@H]1C[C@@H]2CN1C(=O)[C@H](C1CCCC1)NC(=O)O[C@@H]1CCC[C@H]1CCC/C=C/Cn1c(cc3ccccc3c1=O)O2)C(=O)NS(=O)(=O)C1CC1` [(3aR,7S,10S,12R,22E,26aR)-7-cyclopentyl-N-((1R,2S)-1-{[(cyclopropylsulfonyl)amino]carbonyl}-2-vinylcyclopropyl)-5,8,19-trioxo-2,3,3a,5,6,7,8,11,12,21,24,25,26,26a-tetradecahydro-1H,10H,19H-9,12-methanocyclopenta[19,20][1,10,3,6,12]dioxatriazacycloicosino[12,11-b]isoquinoline-10-carboxamide], 0.1 to 0.5 nM. In the case of `C=C[C@@H]1C[C@]1(NC(=O)[C@@H]1C[C@@H]2CN1C(=O)[C@H](C1CCCC1)NC(=O)O[C@@H]1CCC[C@H]1C/C=C/CCn1c(cc3cc(OC)ccc3c1=O)O2)C(=O)NS(=O)(=O)C1CC1` [(3aR,7S,10S,12R,23E,25aS)-7-cyclopentyl-N-((1R,2S)-1-{[(cyclopropylsulfonyl)amino]carbonyl}-2-vinylcyclopropyl)-16-methoxy-5,8,19-trioxo-1,2,3,3a,5,6,7,8,11,12,21,22,25,25a-tetradecahydro-10H,19H-9,12-methanocyclopenta[18,19][1,10,3,6,12]dioxatriazacyclononadecino[12,11-b]isoquinoline-10-carboxamide], the Ki is < 0.1 nM.
